Results reported in PMC10287555, “Camonsertib in DNA damage response-deficient advanced solid tumors: phase 1 trial results” (Nature Medicine, 2023).

Assays:
[1] = Dose-limiting toxicities (DLTs), TRESR phase 1 module 1; assay type: in vivo
Protocol: The starting dose of camonsertib was 5 mg administered on a 5-d-on, 2-d-off (5/2) schedule given once daily (QD) in 21-d cycles. Dose escalation proceeded until a total daily dose of 160 mg was achieved. Per protocol, based on emerging safety, PK and PD data, an alternative schedule of 3 d on, 4 d off (3/4) was then started at a daily dose of 120 mg and escalated to 200 mg, and 160 mg QD (3/4) of camonsertib was proposed as the preliminary RP2D based on long-term (>6 weeks) safety, tolerability, PK and PD data. The dose-limiting toxicity (DLT) rate at the proposed preliminary RP2D was 8% (2/25). All DLTs comprised hematologic toxicities (Table 2).
Patients were treated with single-agent camonsertib at doses ranging from 5–160 mg QD to 40–80 mg twice daily, administered orally on a 5/2 or 3/4 weekly schedule. An intermittent schedule of 2 weeks on/1 week off was also evaluated at dose levels of 160 mg and 200 mg QD (3/4). Each cycle comprised 21 d of treatment. Module 1 dose-escalation decisions based on patients in M1a and M1b cohorts were governed by the Bayesian optimal interval (BOIN) design starting with single-patient cohorts in M1a. […] Escalation of M1a and M1b occurred in parallel until the maximum tolerated dose (MTD) […] RP2D was determined for each schedule. Backfill cohorts were employed to (1) aid in the assessment of possible anti-tumor activity in a subset of patients with a specific gene abnormality or tumor type; (2) allow additional PK/PD evaluation; and (3) further assess drug-related toxicities. Patient safety review and dose decisions were carried out by a Safety Review Committee, comprised of the study investigators and sponsor representatives.
All safety and efficacy endpoints were summarized with descriptive statistics. Safety data were summarized using the safety population, which consisted of all patients who received at least one dose of RP-3500. The DLT rate was based on the DLT-evaluable population, which included those patients in dose-escalation cohorts (M1a and M1b only) receiving ≥80% of planned doses of camonsertib, who completed all required safety evaluations and were observed through the end of cycle 1 or patients who experienced a DLT. Due to the different number of dose levels expected and the exploratory nature of the phase 1 study, anti-tumor activity parameters were primarily based on patients who received ≥1 dose of RP-3500 and had ≥1 post-baseline tumor assessment by RECIST 1.1 and/or GCIG CA-125 or PCWG3 PSA criteria, with an initial dose level of >100 mg d^−1 (dose level predicted to achieve efficacious exposure), as defined in the statistical analysis plan. Additional subgroups based on tumor types or genotypes of interest were based on this efficacy analysis set. […] Patients were, therefore, enrolled in the study and endpoints assessed regardless of sex, gender and race. No formal statistical tests were performed in this study. However, nominal P values (two-sided) were provided for the hypothesis-generating purpose of selected exploratory endpoints, without adjusting for multiplicity. A log-rank test was used in between-group comparisons for the time-to-event endpoints (PFS and DOT), and Fisher’s exact test was used in between-group comparisons for the binary endpoints (CBR, MR, etc.).

p-KAP1 Ser821 = assay: PD biomarker IHC in paired pre-/on-treatment tumor biopsies; assay type: in vivo, human; conditions: 33 paired biopsies, doses >100 mg; P < 0.001, paired Wilcoxon test
Protocol: (§1) Tumor biopsies were collected from patients at baseline and on cycle 2, day 10 between 8 h and 24 h after dosing. […] Thus, p-CHK1 was not assessed owing to limited feasibility. Unstained slides sectioned at 4 μm were labeled for gH2AX Ser139 (clone 20E3, 9718, Cell Signaling Technology, 1:1,000 dilution) and pKAP1 S824 (clone BL-246-7B5, ab243870, Abcam, 1:600 dilution) on a BOND RX autostainer (Leica Biosystems) with enzyme treatment (1:1,000) and BOND Polymer Refine Detection (Leica Biosystems) according to the manufacturer’s protocol. After staining, sections were dehydrated and film-coverslipped using a TissueTek Prisma and Coverslipper (Sakura Fintech). Retrospective ATM IHC was performed by a sponsor-approved central laboratory (anti-ATM clone Y170, ab32420, Abcam, 1:250 dilution). All slides were interpreted by a board-certified pathologist. ATM loss was defined as ≤5% of positive tumor cells.

γ-H2AX = assay: as above; assay type: in vivo, human; conditions: 33 paired biopsies, doses >100 mg; P = 0.003, paired Wilcoxon test
Protocol: as §1

[2] = 3/4 schedule, 60 mg BID (n = 3)
[3] = 3/4 schedule, 120 mg QD (n = 17)
[4] = 3/4 schedule, 160 mg QD (n = 25)
[5] = 3/4 schedule, 2/1w, 160 mg QD (n = 25)
[6] = 3/4 schedule, 2/1w, 200 mg QD (n = 5)
[7] = 5/2 schedule, 40 mg BID (n = 1)
[8] = 5/2 schedule, 100 mg QD (n = 4)
[9] = 5/2 schedule, 120 mg QD (n = 4)
[10] = 5/2 schedule, 160 mg QD (n = 3)
[11] = 5/2 schedule, 5–80 mg QD (n = 5)

SMILES: C[C@@H]1COCCN1c1cc([C@]2(O)C[C@H]3CC[C@@H](C2)O3)c2cnn(-c3cc[nH]n3)c2n1 [camonsertib]
- DLT rate at the proposed preliminary RP2D ([1]; 160 mg QD (3/4), 2/25): 8%
- Any DLT event [1, 2]: 1 (33.3) n (%)
- DLT: Anemia [1, 2]: 1 (33.3) n (%)
- DLT: Febrile neutropenia [1, 2]: 0 n (%)
- DLT: Neutrophil count decreased [1, 2]: 0 n (%)
- DLT: Platelet count decreased [1, 2]: 0 n (%)
- Any DLT event [1, 3]: 1 (5.9) n (%)
- DLT: Anemia [1, 3]: 1 (5.9) n (%)
- DLT: Febrile neutropenia [1, 3]: 0 n (%)
- DLT: Neutrophil count decreased [1, 3]: 0 n (%)
- DLT: Platelet count decreased [1, 3]: 0 n (%)
- Any DLT event [1, 4]: 2 (8.0) n (%)
- DLT: Anemia [1, 4]: 2 (8.0) n (%)
- DLT: Febrile neutropenia [1, 4]: 0 n (%)
- DLT: Neutrophil count decreased [1, 4]: 0 n (%)
- DLT: Platelet count decreased [1, 4]: 0 n (%)
- Any DLT event [1, 5]: 2 (8.0) n (%)
- DLT: Anemia [1, 5]: 1 (4.0) n (%)
- DLT: Febrile neutropenia [1, 5]: 0 n (%)
- DLT: Neutrophil count decreased [1, 5]: 1 (4.0) n (%)
- DLT: Platelet count decreased [1, 5]: 0 n (%)
- Any DLT event [1, 6]: 1 (20.0) n (%)
- DLT: Anemia [1, 6]: 1 (20.0) n (%)
- DLT: Febrile neutropenia [1, 6]: 1 (20.0) n (%)
- DLT: Neutrophil count decreased [1, 6]: 0 n (%)
- DLT: Platelet count decreased [1, 6]: 1 (20.0) n (%)
- Any DLT event [1, 7]: 0 n (%)
- DLT: Anemia [1, 7]: 0 n (%)
- DLT: Febrile neutropenia [1, 7]: 0 n (%)
- DLT: Neutrophil count decreased [1, 7]: 0 n (%)
- DLT: Platelet count decreased [1, 7]: 0 n (%)
- Any DLT event [1, 8]: 2 (50.0) n (%)
- DLT: Anemia [1, 8]: 1 (25.0) n (%)
- DLT: Febrile neutropenia [1, 8]: 0 n (%)
- DLT: Neutrophil count decreased [1, 8]: 0 n (%)
- DLT: Platelet count decreased [1, 8]: 1 (25.0) n (%)
- Any DLT event [1, 9]: 0 n (%)
- DLT: Anemia [1, 9]: 0 n (%)
- DLT: Febrile neutropenia [1, 9]: 0 n (%)
- DLT: Neutrophil count decreased [1, 9]: 0 n (%)
- DLT: Platelet count decreased [1, 9]: 0 n (%)
- Any DLT event [1, 10]: 0 n (%)
- DLT: Anemia [1, 10]: 0 n (%)
- DLT: Febrile neutropenia [1, 10]: 0 n (%)
- DLT: Neutrophil count decreased [1, 10]: 0 n (%)
- DLT: Platelet count decreased [1, 10]: 0 n (%)
- Any DLT event [1, 11]: 0 n (%)
- DLT: Anemia [1, 11]: 0 n (%)
- DLT: Febrile neutropenia [1, 11]: 0 n (%)
- DLT: Neutrophil count decreased [1, 11]: 0 n (%)
- DLT: Platelet count decreased [1, 11]: 0 n (%)
- Preliminary recommended phase 2 dose (RP2D) ([1]; QD, 3 d on/4 d off (weekly on days 1–3)): 160 mg
- Any DLT event ([1]; Total DLT evaluable (n = 92)): 9 (9.8) n (%)
- DLT: Anemia ([1]; Total DLT evaluable (n = 92)): 7 (7.6) n (%)
- DLT: Febrile neutropenia ([1]; Total DLT evaluable (n = 92)): 1 (1.1) n (%)
- DLT: Neutrophil count decreased ([1]; Total DLT evaluable (n = 92)): 1 (1.1) n (%)
- DLT: Platelet count decreased ([1]; Total DLT evaluable (n = 92)): 2 (2.2) n (%)
- Change in p-KAP1, on-treatment vs pre-treatment biopsy (p-KAP1 Ser821): statistically significant increases
- Change in γ-H2AX, on-treatment vs pre-treatment biopsy (γ-H2AX): statistically significant increases
